Entries after “also recorded” stand apart in the source; their conditions may differ.
How the values were obtained:
[1] = tested on: healthy cats; assay: Blood test and blood chemical analysis in healthy cats; format: in vivo, cat; conditions: after 7 days BID at 10-100 μg/kg oral
Experimental: In this study, 3 male cats and 2 female cats, totally 5 Japanese cats, aging 3 to 6 years old were used, which were raised in an animal hospital and for which no abnormalities were observed clinically and by blood test. The subject cats were individually placed in each cage in which each cat was allowed to take water ad libitum, and each cat was fed twice a day after measuring the necessary items. For the purpose of acclimatization, the cats were measured for blood pressure noninvasively twice a day for 2 weeks.
Blood test and blood chemical analysis were carried out as follows: Blood was collected before administration of beraprost sodium and on the next day of the termination of continuous administration for 7 days at each dose (the continuous administration of one test compound for 7 days is hereinafter referred to as “1 series”) at fasting, and analyzed. Inspection items in the blood test were RBC, WBC, PCV, Hb and Plat, and those in the blood chemical analysis were AST, ALT, T.P, BUN, Cre, Na, K and Cl.
In each administration series, the same cat was used in each administration series as the subject cat for the correctness of the evaluation of the test drug. To eliminate the influence of the test drug of the previous series, wash out period of 2 weeks were given after the termination of the respective series. […]

[2] = tested on: dog with chronic renal failure; assay: Clinical score of uremic symptoms in dog with chronic renal failure (Case-H); format: in vivo
Experimental: Testing methods for the patients showing uremia caused by chronic renal failure, employed in Example 4 or later, will now be described. The criteria and evaluation items for the cats and dogs with chronic renal failure are as follows: Diagnosis of uremia and chronic renal failure were performed totally taking clinical findings (including findings of uremia) and the results of the blood test, blood biochemical analysis and urinalysis into consideration. As the clinical findings of uremia, existence and degree of polydipsia and diuresis, dehydration, anorexia, weight loss, vomiting symptom and state of dehydration were observed. Existence of chronic renal failure was judged based on the serum Cre value as generally employed. As reference data for grasping the degree of progress of chronic renal failure, BUN value was also monitored.
Evaluation of degree of improvement of the uremic symptoms was carried out as follows: From the clinical symptoms related to uremia, activity and appetite, which are unlikely to be overlooked and which can be observed universally from before to after the test period, were selected. […] The evaluation was carried out based on the total points (full points were 5 points). Thus, a higher point indicates more improvements in the clinical symptoms. […]

[3] = tested on: dog with chronic renal failure; assay: Adverse events in dog with chronic renal failure (Case-H); format: in vivo; conditions: 150 μg/capsule oral twice a day alone
Experimental: The subject patient to whom beraprost sodium was to be administered was a female dog (hybrid) of 14 years old with a body weight of 6.4 kg. The patient visited the hospital with chief complaints of anorexia and drastic decrease in activity. Based on the past history, clinical observations and results of clinical test, the dog was diagnosed as chronic renal failure. The clinical score at the first visit was as low as 2 points, and treatment with Covalzin at a dose of 200 mg/BID was started. […] In view of this, after obtaining consent by the client, treatment with Covalzin was stopped, and switched to administration of beraprost sodium alone. Beraprost sodium was diluted with polyethylene glycol (Wako) to attain a dose of 150 μg/capsule, and was divided into capsules (size 5 Shionogi Qualicaps). Beraprost sodium was orally administered twice a day at fasting. […] In the above-described series of therapy, feeding of a formula meal and infusion were not performed at all. […] Based on the above, it was first discovered that in chronic renal failure of dogs, in addition to cats, the effect of beraprost sodium to ameliorate uremic symptoms is clearly shown in spite of the fact that Serum Cre value and BUN value which are markers of renal function indicative of renal failure are continuously worsened.

[4] = tested on: cats with chronic renal failure; assay: Clinical score of uremic symptoms (activity + appetite) in cats with chronic renal failure; format: in vivo, cat; conditions: Case-G; 40 μg/head/BID; Day 14, kept up to Day 56; 3 points before
[5] = tested on: immune complex-induced glomerulonephritis mouse NZB/WF1; conditions: administered before onset; cited from earlier work
[6] = tested on: rat glomerulonephritis models; conditions: prophylactic administration before the nephritis-inducing substance; cited from earlier work

Compound: CC#CC[C@@H](C)[C@H](O)/C=C/[C@@H]1[C@H]2c3cccc(CCCC(=O)[O-])c3O[C@H]2C[C@H]1O.[Na+] (mixture of isomers) [beraprost sodium, Sodium rac-(1R,2R,3aS,8bS)-2,3,3a,8b-tetrahydro-2-hydroxy-1-[(E)-(3S,4RS)-3-hydroxy-4-methyloct-1-en-6-ynyl]-1H-cyclopenta[b][1]benzofuran-5-butanoate]
- blood cell count, electrolytes, renal function and liver function [1]: no adverse change was observed
- clinical score (full points 5) ([2]; 150 μg/capsule oral twice a day alone, first month, 3 points before): 4 points
- uremic symptoms ([2]; after start of beraprost sodium alone): quickly remitted and ameliorated
- adverse events such as diarrhea, vomiting [3]: no adverse event; also recorded: no adverse action
- clinical score (full points 5) [4]: 5 points
- onset of glomerulonephritis (index: urinary excretion of albumin) [5]: can be inhibited
- onset of nephritis (urinary excretion of albumin) [6]: prevented

Source: patent publication US9783518B2, “Therapeutic agent and treatment method for ameliorating uremia” (Toray Industries, Inc., priority 2005, dated 2017)
